From PMC5829162, “Rational Design, Synthesis and Biological Evaluation of Pyrimidine-4,6-diamine derivatives as Type-II inhibitors of FLT3 Selective Against c-KIT” (Scientific Reports, 2018)
Values joined by “and” are separate entries in the source; they are usually repeats but may differ in a detail not shown here. Equal entries are not always repeated.

Target: T1, FLT3D835Y (Homo sapiens, UniProt P36888, D835Y)
T1 construct: the biochemical assay only contains the kinase domain with a single, D835Y point mutation
T1 sequence (P36888 610-943 D835Y limits assumed): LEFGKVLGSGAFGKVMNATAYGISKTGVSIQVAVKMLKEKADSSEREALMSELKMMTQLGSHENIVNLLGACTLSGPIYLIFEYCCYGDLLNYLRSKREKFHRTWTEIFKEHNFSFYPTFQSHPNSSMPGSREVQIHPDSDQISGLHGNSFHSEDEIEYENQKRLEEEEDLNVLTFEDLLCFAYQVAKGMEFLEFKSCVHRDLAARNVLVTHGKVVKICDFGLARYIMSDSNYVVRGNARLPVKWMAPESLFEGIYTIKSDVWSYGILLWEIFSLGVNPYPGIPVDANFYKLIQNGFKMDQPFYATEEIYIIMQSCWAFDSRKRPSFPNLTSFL
Test: Biochemical kinase selectivity assay, FLT3 D835Y
Details: in vitro kinase assay; read-out: FLT3D835Y IC50 (nM) ± SD
Procedure: Kinase activity was measured in a microfluidics assay that monitors the separation of a phosphorylated product from substrate[31],[32]. The assay was run using a 12-sipper chip on a Caliper EZ Reader II (PerkinElmer®, Walthman, USA) with separation buffer (100 mM HEPES, 10 mM EDTA, 0.015% Brij-35, 0.1% CR-3 [PerkinElmer®, Walthman, USA]). In 96-well polypropylene plates (Greiner, Frickenhausen, Germany) compound stocks (20 mM in DMSO) were diluted into kinase buffer (50 mM HEPES, 0.075% Brij-35, 0.1% Tween 20, 2 mM DTT, 10 mM MgCl2, and 0.02% NaN3) in 12-point ½log dilutions (2 mM–6.32 nM). After, 1 μL was transferred into a 384-well polypropylene assay plate (Greiner, Frickenhausen, Germany). […] Percent inhibition was measured for each well comparing starting peptide to phosphorylated product peaks relative to the baseline. […] IC50 values were generated in duplicate and error was calculated from the standard deviation between values.
S10. Biochemical Inhibition Assay:1,2 Kinase activity was measured in a microfluidics assay that monitors the separation of a phosphorylated product from substrate. The assay was run using a 12-sipper chip on a Caliper EZ Reader II (PerkinElmer®, Walthman, USA) with separation buffer (100 mM HEPES, 10 mM EDTA, 0.015% Brij-35, 0.1% CR-3 [PerkinElmer®, Walthman, USA]). […]

Compound | IC50
Cn1nc(C(C)(C)C)cc1NC(=O)Cc1ccc(Nc2cc(Nc3ccc(S(C)(=O)=O)cc3)ncn2)cc1 [13a, 2-(4-(6-(4-(Methylsulfonyl)phenylamino)pyrimidin-4-ylamino)phenyl)-N-(3-tert-butyl-1-methyl-1H-pyrazol-5-yl)acetamide] | 72.5 nM and 72 nM
CC(C)(C)c1cc(NC(=O)Cc2ccc(Nc3cc(Nc4ccc(S(C)(=O)=O)cc4)ncn3)cc2)no1 [13k, 2-(4-(6-(4-(Methylsulfonyl)phenylamino)pyrimidin-4-ylamino)phenyl)-N-(5-tert-butylisoxazol-3-yl)acetamide] | 13700 ± 234 nM
